Laboratory results taken from patent publication US8158631B2, “Heterocyclic antiviral compounds” (Roche Palo Alto LLC, priority 2009, dated 2012).

How the values were obtained:
[1] = molecular target: T1, HCV polymerase (NS5B570n-Con1) (Hepatitis C virus genotype 1b, UniProt Q9WMX2); assay: HCV NS5B RNA polymerase activity (HCV Polymerase Assay); format: biochemical, HCV Con1 strain
T1 construct: contains a 21 amino acid deletion at the C-terminus relative to the full-length HCV polymerase; made in house; host or cells: E. coli strain BL21(DE) pLysS, plasmid pET17b
Experimental: The enzymatic activity of HCV polymerase (NS5B570n-Con1) was measured as the incorporation of radiolabeled nucleotide monophosphates into acid insoluble RNA products. Unincorporated radiolabeled substrate was removed by filtration and scintillant was added to the washed and dried filter plate containing radiolabeled RNA product. The amount of RNA product generated by NS5B570-Con1 at the end of the reaction was directly proportional to the amount of light emitted by the scintillant.
The N-terminal 6-histidine tagged HCV polymerase, derived from HCV Con1 strain, genotype 1b (NS5B570n-Con1) contains a 21 amino acid deletion at the C-terminus relative to the full-length HCV polymerase and was purified from E. coli strain BL21(DE) pLysS. The construct, containing the coding sequence of HCV NS5B Con1 (GenBank accession number AJ242654) was inserted into the plasmid construct pET17b, downstream of a T7 promoter expression cassette and transformed into E. coli. A single colony was grown overnight as a starter culture and later used inoculate 10 L of LB media supplemented with 100 μg/mL ampicillin at 37° C. Protein expression was induced by the addition of 0.25 mM isopropyl-β-D-thiogalactopyranoside (IPTG) when optical density at […] of the culture was between 0.6 and 0.8 and cells were harvested after 16 to 18 h at 30° C. NS5B570n-Con1 was purified to homogeneity using a three-step protocol including subsequent column chromatography on Ni-NTA, SP-Sepharose HP and Superdex 75 resins.
Each 50 μL enzymatic reaction contained 20 nM RNA template derived from the complementary sequence of the Internal Ribosome Entry Site (cIRES), 20 nM NS5B570n-Con1 enzyme, 0.5 μCi of tritiated UTP (Perkin Elmer catalog no. TRK-412; specific activity: 30 to 60 Ci/mmol; stock solution concentration from 7.5×10^−5 M to 20.6×10^−6 M), 1 μM each ATP, CTP, and GTP, 40 mM Tris-HCl pH 8.0, 40 mM NaCl, 4 mM DTT (dithiothreitol), 4 mM MgCl2, and 5 μL of compound serial diluted in DMSO. Reaction mixtures were assembled in 96-well filter plates (cat #MADVNOB, Millipore Co.) and incubated for 2 h at 30° C. Reactions were stopped by addition of 10% final (v/v) trichloroacetic acid and incubated for 40 min at 4° C. Reactions were filtered, washed with 8 reaction volumes of 10% (v/v) trichloroacetic acetic acid, 4 reaction volumes of 70% (v/v) ethanol, air dried, and 25 μL of scintillant (Microscint 20, Perkin-Elmer) was added to each reaction well.
The amount of light emitted from the scintillant was converted to counts per minute (CPM) on a Topcount® plate reader (Perkin-Elmer, Energy Range: Low, Efficiency Mode Normal, Count Time: 1 min, Background Subtract: none, Cross talk reduction: Off).
Data was analyzed in Excel® (Microsoft®) and ActivityBase® (Idbs®). The reaction in the absence of enzyme was used to determine the background signal, which was subtracted from the enzymatic reactions. Positive control reactions were performed in the absence of compound, from which the background corrected activity was set as 100% polymerase activity. All data was expressed as a percentage of the positive control.
The compound concentration at which the enzyme-catalyzed rate of RNA synthesis was reduced by 50% (IC50) was calculated by fitting equation (i) to the data where“Y”
[formula] corresponds to the relative enzyme activity (in %), “% Min” is the residual relative activity at saturating compound concentration, “% Max” is the relative maximum enzymatic activity, “X” corresponds to the compound concentration, and “S” is the Hill coefficient (or slope).

Row | Structure (SMILES) | IC50 [1] [µM] | melting point [°C]
1 | COc1c(/C=C/c2ccccc2C(=O)O)cc(-n2ccccc2=O)cc1C(C)(C)C [Compound I-18] | 0.005 | –
2 | COc1c(CCc2ccc(NS(C)(=O)=O)cc2)cc(N2C(=O)NC(C)C2=O)cc1C(C)(C)C (stereo not drawn) [Compound I-25] | 0.019 | 211 to 212
3 | COc1c(-c2nc3cc(NS(C)(=O)=O)ccc3o2)cc(N2CCCNC2=O)cc1C(C)(C)C [Compound I-24, N-{2-[3-tert-Butyl-2-methoxy-5-(2-oxo-tetrahydro-pyrimidin-1-yl)-phenyl]-benzooxazol-5-yl}-methanesulfonamide] | 0.0633 | –
4 | COc1c(/C=C/c2ccc(NS(C)(=O)=O)cc2)cc(N2CCCNS2(=O)=O)cc1C(C)(C)C [Compound I-26, N-(4-{(E)-2-[3-tert-Butyl-5-(1,1-dioxo-1λ^6-[1,2,6]thiadiazinan-2-yl)-2-methoxy-phenyl]-vinyl}-phenyl)-methanesulfonamide] | 0.0051 | 255 to 257
5 | COc1c(/C=C/c2ccc(NS(C)(=O)=O)cc2C(=O)O)cc(-n2ccncc2=O)cc1C(C)(C)C [Compound I-16] | 0.00039 | 176 to 179
6 | COc1c(/C=C/c2ccc(NS(C)(=O)=O)cc2)cc(N2CCCCC2=O)cc1C(C)(C)C [Compound I-8, N-(4-{(E)-2-[3-tert-Butyl-2-methoxy-5-(2-oxo-piperidin-1-yl)-phenyl]-vinyl}-phenyl)-methanesulfonamide] | 0.016 | 247 to 249
7 | COc1c(/C=C/c2ccc(NS(C)(=O)=O)cc2)cc(-n2c(C)n[nH]c2=O)cc1C(C)(C)C [Compound I-27, N-(4-{(E)-2-[3-tert-Butyl-2-methoxy-5-(3-methyl-5-oxo-1,5-dihydro-[1,2,4]triazol-4-yl)-phenyl]-vinyl}-phenyl)-methanesulfonamide] | 0.0003 | 289 to 291
8 | COc1c(CCc2ccc(NS(C)(=O)=O)cc2)cc(N2C(=O)CNC2=O)cc1C(C)(C)C [Compound I-7, N-(4-{2-[3-tert-Butyl-5-(2,5-dioxo-imidazolidin-1-yl)-2-methoxy-phenyl]-ethyl}-phenyl)-methanesulfonamide] | 0.015 | 230 to 231
9 | COc1c(/C=C/c2ccccc2C(=O)O)cc(-n2ccncc2=O)cc1C(C)(C)C [Compound I-19, 2-{(E)-2-[3-tert-Butyl-2-methoxy-5-(2-oxo-2H-pyrazin-1-yl)-phenyl]-vinyl}-benzoic acid] | 0.002 | –
10 | COc1c(CCc2ccc(NS(C)(=O)=O)cc2)cc(N2C(=O)CCNC2=O)cc1C(C)(C)C [Compound I-6, N-(4-{2-[3-tert-Butyl-5-(2,6-dioxo-tetrahydro-pyrimidin-1-yl)-2-methoxy-phenyl]-ethyl}-phenyl)-methanesulfonamide] | 0.063 | –
11 | CC(C)(C)c1cc(/C=C/c2ccc(NS(C)(=O)=O)cc2)cc(N2CCCNC2=O)c1 [I-I, N-(4-{(E)-2-[3-tert-Butyl-5-(2-oxo-tetrahydro-pyrimidin-1-yl)-phenyl]-vinyl}-phenyl)-methanesulfonamide] | 0.015 | 235 to 237
12 | COc1c(-c2cc3ccc(NS(C)(=O)=O)cc3c(=O)o2)cc(-n2ccncc2=O)cc1C(C)(C)C [Compound I-22] | 0.003 | 272 to 275
13 | COc1c(CCc2ccc(NS(C)(=O)=O)cc2)cc(N2CCCS2(=O)=O)cc1C(C)(C)C [Compound I-20] | 0.083 | 83 to 86
14 | COc1c(/C=C/c2ccc(NS(C)(=O)=O)cc2)cc(N2CCCNC2=O)cc1C(C)(C)C [Compound I-2, N-(4-{(E)-2-[3-tert-Butyl-2-methoxy-5-(2-oxo-tetrahydro-pyrimidin-1-yl)-phenyl]-vinyl}-phenyl)-methanesulfonamide] | 0.01 | –
15 | COC(=O)c1cc(NS(C)(=O)=O)ccc1/C=C/c1cc(-n2ccncc2=O)cc(C(C)(C)C)c1OC [Compound I-15, 2-{(E)-2-[3-tert-Butyl-2-methoxy-5-(2-oxo-2H-pyrazin-1-yl)-phenyl]-vinyl}-5-methanesulfonylamino-benzoic acid methyl ester] | 0.001 | –
